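Results reflect a 48-hour exposure of cells in 96-well plates to compound at five concentrations. GI50 = concentration required for 50% inhibition of growth.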 Active and inactive are the calls of the source. Rule as the data show it: active = GI50 up to about 1.1 µM and inactive = higher.
Tests used:
Test in all cases: NCI-60 cell line screen, 48 h
SF-539 = system: SF-539
NCI-H226 = system: NCI-H226
RXF 393 = system: RXF 393
NCI-H460 = system: NCI-H460
SK-MEL-28 = system: SK-MEL-28
U-251 = system: U-251
HCT-116 = system: HCT-116
UO-31 = system: UO-31
K562 = system: K562
COLO 205 = system: COLO 205
KM-20L2 = system: KM-20L2
NCI-H23 = system: NCI-H23
MOLT-4 = system: MOLT-4
LOX IMVI = system: LOX IMVI
SNB-75 = system: SNB-75
KM12 = system: KM12
HOP-92 = system: HOP-92
M14 = system: M14
DLD-1 = system: DLD-1
TK-10 = system: TK-10
OVCAR-8 = system: OVCAR-8
HOP-62 = system: HOP-62
EKVX = system: EKVX
OVCAR-4 = system: OVCAR-4
HL-60 = system: HL-60
CAKI-1 = system: CAKI-1
HCC 2998 = system: HCC 2998
OVCAR-5 = system: OVCAR-5
DMS-114 = system: DMS-114
LXFL 529 = system: LXFL 529
SNB-19 = system: SNB-19
NCI-H522 = system: NCI-H522
RPMI-8226 = system: RPMI-8226
HT-29 = system: HT-29
UACC-257 = system: UACC-257
SN12C = system: SN12C
OVCAR-3 = system: OVCAR-3
DMS-273 = system: DMS-273
A549 = system: A549
SR = system: SR
SF-268 = system: SF-268
M19-MEL = system: M19-MEL
SK-OV-3 = system: SK-OV-3
XF498 = system: XF498
RXF 631 = system: RXF 631
786-0 = system: 786-0
HOP-18 = system: HOP-18
SK-MEL-2 = system: SK-MEL-2
IGROV-1 = system: IGROV-1
HCT-15 = system: HCT-15
SNB-78 = system: SNB-78
SW-620 = system: SW-620
ACHN = system: ACHN
UACC-62 = system: UACC-62
CCRF-CEM = system: CCRF-CEM
SK-MEL-5 = system: SK-MEL-5
SF-295 = system: SF-295
Malme-3M = system: Malme-3M
A498 = system: A498

O=C(N/C=C/C=C/Sc1ccccc1)OCc1ccccc1
GI50 (SF-539): 16.5 µM (inactive) | GI50 (NCI-H226): 19.9 µM (inactive) | GI50 (RXF 393): 20.1 µM (inactive) | GI50 (NCI-H460): 21.7 µM (inactive) | GI50 (SK-MEL-28): 18.7 µM (inactive) | GI50 (U-251): 19.3 µM (inactive) | GI50 (HCT-116): 18.2 µM (inactive) | GI50 (UO-31): 17.5 µM (inactive) | GI50 (K562): 15.4 µM (inactive) | GI50 (COLO 205): 17.7 µM (inactive) | GI50 (KM-20L2): 17.2 µM (inactive) | GI50 (NCI-H23): 22.7 µM (inactive) | GI50 (MOLT-4): 15.4 µM (inactive) | GI50 (LOX IMVI): 17.5 µM (inactive) | GI50 (SNB-75): 21.5 µM (inactive) | GI50 (KM12): 17.5 µM (inactive) | GI50 (HOP-92): 23.2 µM (inactive) | GI50 (M14): 18.5 µM (inactive) | GI50 (DLD-1): 14.1 µM (inactive) | GI50 (TK-10): 24.3 µM (inactive) | GI50 (OVCAR-8): 15.7 µM (inactive) | GI50 (HOP-62): 24.5 µM (inactive) | GI50 (EKVX): 24.8 µM (inactive) | GI50 (OVCAR-4): 21.7 µM (inactive) | GI50 (HL-60): 8.83 µM (inactive) | GI50 (CAKI-1): 20.3 µM (inactive) | GI50 (HCC 2998): 20.1 µM (inactive) | GI50 (OVCAR-5): 14.3 µM (inactive) | GI50 (DMS-114): 16.6 µM (inactive) | GI50 (LXFL 529): 17.1 µM (inactive) | GI50 (SNB-19): 33.3 µM (inactive) | GI50 (NCI-H522): 16.1 µM (inactive) | GI50 (RPMI-8226): 18.7 µM (inactive) | GI50 (HT-29): 17.5 µM (inactive) | GI50 (UACC-257): 18.7 µM (inactive) | GI50 (SN12C): 17.1 µM (inactive) | GI50 (OVCAR-3): 17.3 µM (inactive) | GI50 (DMS-273): 16.6 µM (inactive) | GI50 (A549): 20.4 µM (inactive) | GI50 (SR): 36.3 µM (inactive) | GI50 (SF-268): 17.5 µM (inactive) | GI50 (M19-MEL): 17.2 µM (inactive) | GI50 (SK-OV-3): 33.8 µM (inactive) | GI50 (XF498): 20.4 µM (inactive) | GI50 (RXF 631): 19.1 µM (inactive) | GI50 (786-0): 16.9 µM (inactive) | GI50 (HOP-18): 28.1 µM (inactive) | GI50 (SK-MEL-2): > 10 µM (inactive) | GI50 (IGROV-1): 21.2 µM (inactive) | GI50 (HCT-15): 18.1 µM | GI50 (SNB-78): 40.2 µM (inactive) | GI50 (SW-620): 17.7 µM (inactive) | GI50 (ACHN): 27.2 µM (inactive) | GI50 (UACC-62): 16 µM (inactive) | GI50 (CCRF-CEM): 52.1 µM (inactive) | GI50 (SK-MEL-5): 17.7 µM (inactive) | GI50 (SF-295): 19.6 µM (inactive)

COc1ccccc1NC(=O)C(=O)C1C(=O)Nc2ccccc2[S+]1[O-] (centres undefined)
GI50 (SF-539): > 100 µM (inactive) | GI50 (NCI-H226): > 100 µM (inactive) | GI50 (Malme-3M): > 100 µM (inactive) | GI50 (RXF 393): > 100 µM (inactive) | GI50 (NCI-H460): > 100 µM (inactive) | GI50 (SK-MEL-28): > 100 µM (inactive) | GI50 (U-251): > 100 µM (inactive) | GI50 (HCT-116): > 100 µM (inactive) | GI50 (A498): > 100 µM (inactive) | GI50 (UO-31): > 100 µM (inactive) | GI50 (K562): > 100 µM (inactive) | GI50 (COLO 205): > 100 µM (inactive) | GI50 (KM-20L2): > 100 µM (inactive) | GI50 (NCI-H23): > 100 µM (inactive) | GI50 (MOLT-4): > 100 µM (inactive) | GI50 (LOX IMVI): > 100 µM (inactive) | GI50 (SNB-75): > 100 µM (inactive) | GI50 (KM12): > 100 µM (inactive) | GI50 (M14): > 100 µM (inactive) | GI50 (DLD-1): > 100 µM (inactive) | GI50 (TK-10): > 100 µM (inactive) | GI50 (OVCAR-8): > 100 µM (inactive) | GI50 (HOP-62): > 100 µM (inactive) | GI50 (EKVX): > 100 µM (inactive) | GI50 (OVCAR-4): > 100 µM (inactive) | GI50 (HL-60): > 100 µM (inactive) | GI50 (CAKI-1): > 100 µM (inactive) | GI50 (HCC 2998): > 100 µM (inactive) | GI50 (OVCAR-5): > 100 µM (inactive) | GI50 (DMS-114): > 100 µM (inactive) | GI50 (LXFL 529): > 100 µM (inactive) | GI50 (SNB-19): > 100 µM (inactive) | GI50 (NCI-H522): > 100 µM (inactive) | GI50 (HT-29): > 100 µM (inactive) | GI50 (UACC-257): > 100 µM (inactive) | GI50 (SN12C): > 100 µM (inactive) | GI50 (OVCAR-3): > 100 µM (inactive) | GI50 (DMS-273): > 100 µM (inactive) | GI50 (A549): > 100 µM (inactive) | GI50 (SR): > 100 µM (inactive) | GI50 (SF-268): > 100 µM (inactive) | GI50 (M19-MEL): > 100 µM (inactive) | GI50 (SK-OV-3): > 100 µM (inactive) | GI50 (XF498): > 100 µM (inactive) | GI50 (RXF 631): > 100 µM (inactive) | GI50 (786-0): > 100 µM (inactive) | GI50 (HOP-18): > 100 µM (inactive) | GI50 (SK-MEL-2): > 100 µM (inactive) | GI50 (IGROV-1): > 100 µM (inactive) | GI50 (HCT-15): > 100 µM | GI50 (SNB-78): > 100 µM (inactive) | GI50 (SW-620): > 100 µM (inactive) | GI50 (ACHN): > 100 µM (inactive) | GI50 (UACC-62): > 100 µM (inactive) | GI50 (CCRF-CEM): > 100 µM (inactive) | GI50 (SK-MEL-5): > 100 µM (inactive) | GI50 (SF-295): > 100 µM (inactive)

Reference: ChEMBL document CHEMBL1201862, “PubChem BioAssay data set” (2004)
